Consider 25 compounds from ChEMBL document CHEMBL1141623 (Bioorg Med Chem Lett, 2008).

pIC50: −log10 of the molar value. Where only a bound is given, the exact number is not on record here.

One series deals with Mu-type opioid receptor (Homo sapiens, UniProt P35372). As to the kind of experiment: Binding affinity to mu opioid receptor.
In series [1] the target is Sodium-dependent serotonin transporter (Homo sapiens, UniProt P31645). Description: Inhibition of SERT mediated 5-hydroxytryptamine uptake.
Chain of Sodium-dependent serotonin transporter (P31645 whole entry): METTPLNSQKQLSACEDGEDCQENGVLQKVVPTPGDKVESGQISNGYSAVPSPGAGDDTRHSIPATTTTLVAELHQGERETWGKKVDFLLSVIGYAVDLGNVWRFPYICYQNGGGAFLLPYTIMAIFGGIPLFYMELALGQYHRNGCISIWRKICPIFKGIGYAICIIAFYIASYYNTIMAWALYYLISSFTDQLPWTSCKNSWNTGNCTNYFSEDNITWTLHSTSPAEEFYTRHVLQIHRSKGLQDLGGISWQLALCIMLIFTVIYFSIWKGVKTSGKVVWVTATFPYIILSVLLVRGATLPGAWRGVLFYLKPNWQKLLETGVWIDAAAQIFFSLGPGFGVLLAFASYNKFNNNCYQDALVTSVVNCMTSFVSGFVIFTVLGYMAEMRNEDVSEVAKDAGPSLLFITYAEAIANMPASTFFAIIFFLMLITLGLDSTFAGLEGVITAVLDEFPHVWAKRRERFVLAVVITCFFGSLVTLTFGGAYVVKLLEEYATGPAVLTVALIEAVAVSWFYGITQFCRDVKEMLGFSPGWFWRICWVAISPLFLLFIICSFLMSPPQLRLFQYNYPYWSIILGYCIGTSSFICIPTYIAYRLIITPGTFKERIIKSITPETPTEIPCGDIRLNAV
Series [2] deals with Sodium-dependent noradrenaline transporter (Homo sapiens, UniProt P23975). As to the kind of experiment: Inhibition of NET mediated norepinephrine uptake.
Chain of Sodium-dependent noradrenaline transporter (P23975 whole entry): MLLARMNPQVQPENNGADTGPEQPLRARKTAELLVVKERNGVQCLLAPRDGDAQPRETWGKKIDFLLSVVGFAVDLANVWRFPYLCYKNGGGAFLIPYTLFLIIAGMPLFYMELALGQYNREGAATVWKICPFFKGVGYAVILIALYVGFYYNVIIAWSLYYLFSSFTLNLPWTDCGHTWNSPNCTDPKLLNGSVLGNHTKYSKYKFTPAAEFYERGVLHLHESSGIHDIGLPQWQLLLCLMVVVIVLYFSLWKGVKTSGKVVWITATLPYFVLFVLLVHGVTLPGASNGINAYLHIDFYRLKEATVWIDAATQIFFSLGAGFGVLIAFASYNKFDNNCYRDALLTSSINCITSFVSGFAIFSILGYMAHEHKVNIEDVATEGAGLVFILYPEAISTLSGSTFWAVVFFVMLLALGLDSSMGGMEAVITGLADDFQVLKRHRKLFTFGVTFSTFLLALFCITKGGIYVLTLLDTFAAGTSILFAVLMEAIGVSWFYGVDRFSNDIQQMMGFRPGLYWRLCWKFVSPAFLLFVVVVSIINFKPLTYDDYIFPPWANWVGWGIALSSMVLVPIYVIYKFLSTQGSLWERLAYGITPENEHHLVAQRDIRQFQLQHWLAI
Series [3] is described as follows: Stability in rat liver microsome after 60 mins. Format: ADME. To be noted: liver microsomes, read-out: Stability.
The nature of series [4]: Stability in rat liver S9 fraction after 60 mins. The series is classed as ADME, subcellular. To be noted: read-out: Stability.
Series [5] can be described thus: Stability in human liver microsome after 60 mins. Format: ADME. The conditions noted are these: liver microsomes, read-out: Stability. In general terms: Liver microsomes are a subcellular fraction often used to study metabolism.
Series [6] in a line: Stability in human liver S9 fraction after 60 mins. To be noted: read-out: Stability. The series is classed as ADME, subcellular.
Series [7] deals with Rattus norvegicus. As to the kind of experiment: Analgesic activity in iv dosed Sprague-Dawley rat assessed as duration of effect by tail-flick model of pain. The series is classed as functional.
Series [8] relates to Rattus norvegicus. As to the kind of experiment: Analgesic activity in iv dosed Sprague-Dawley rat by tail-flick model of pain. Format: functional.
Series [9] has as its system Rattus norvegicus. As to the kind of experiment: Toxicity in iv dosed Sprague-Dawley rat. Format: organism-based. The conditions noted are these: in vivo.
A short description of series [10]: Bioavailability in […] dosed Sprague-Dawley rat. Format: ADME, organism-based. To be noted: in vivo.

Chain of Mu-type opioid receptor (P35372 whole entry): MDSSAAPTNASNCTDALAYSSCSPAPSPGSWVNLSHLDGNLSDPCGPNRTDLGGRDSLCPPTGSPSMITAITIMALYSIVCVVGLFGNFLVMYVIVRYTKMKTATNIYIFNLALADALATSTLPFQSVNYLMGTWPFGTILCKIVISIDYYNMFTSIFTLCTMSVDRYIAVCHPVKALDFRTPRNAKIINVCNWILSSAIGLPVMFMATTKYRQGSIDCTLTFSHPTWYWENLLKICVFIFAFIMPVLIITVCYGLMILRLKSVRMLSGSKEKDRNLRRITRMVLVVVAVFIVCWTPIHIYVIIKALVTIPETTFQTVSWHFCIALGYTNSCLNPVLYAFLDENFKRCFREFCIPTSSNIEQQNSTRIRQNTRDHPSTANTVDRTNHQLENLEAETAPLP

Usually pIC50 stands for the negative decadic logarithm of the IC50, by convention in mol/L. On to `CO[C@]1(c2cccc(C#N)c2)CCCC[C@@H]1CN(C)C`, for which the negative logarithm of the IC50 (pIC50) at Mu-type opioid receptor is less than 5.00; in [1] it was 5.21; in series [2], 5.35. Further, the remaining at 1 h in series [3] turned out to be 69%; in series [4], 83%; in series [5] it was 89%; in [6], 94%.

For the compound `CN(C)C[C@H]1CCCC[C@]1(OCC1CC1)c1cccc(O)c1`, the pIC50 was 6.89 at Mu-type opioid receptor, 5.44 in series [1] and less than 5.00 in series [2].

Broadly, the ED50 is the midpoint of the dose-response relation. Take `CNC[C@@H]1CCCC[C@@]1(OC)c1cccc(OC)c1`: the negative logarithm of the IC50 (pIC50) is less than 5.00 on Mu-type opioid receptor and 6.05 in series [2]. The Time in the series on Rattus norvegicus [7] is on record as 27 min. It took a dose of 3.1 mg/kg to reach the 50% effect level with Rattus norvegicus [8] (ED50).

Turning to `CCCO[C@]1(c2cccc(OC)c2)CCCC[C@@H]1CN(C)C`, the figures for the negative-log IC50 (pIC50) (at Mu-type opioid receptor; in series [1]; in series [2]) were 5.10, 7.60 and 5.41, respectively.

Turning to `CNC[C@H]1CCCC[C@]1(OC)c1cccc(OC)c1`, the pIC50 (on Mu-type opioid receptor; in series [2]) was less than 5.00 each time. The Activity entry with Rattus norvegicus [9] was “Toxic”.

With `COc1cccc([C@@]2(OCCCO)CCCC[C@@H]2CN(C)C)c1`, the negative-log IC50 (pIC50) at Mu-type opioid receptor is 5.10; in series [1] it was 5.83; in series [2] it was 5.41.

For `CN(C)C[C@H]1CCCC[C@]1(OCCO)c1cccc(O)c1`, the results for the pIC50 (at Mu-type opioid receptor; in series [1]; in series [2]) were 6.72, 5.82 and 5.23, respectively.

Take `COc1cccc([C@@]2(OCCO)CCCC[C@@H]2CN(C)C)c1`: the pIC50 (on Mu-type opioid receptor; in [1]; in series [2]) was less than 5.00 each time.

As to `CCCCO[C@]1(c2cccc(OC)c2)CCCC[C@@H]1CN(C)C`, the negative logarithm of the IC50 (pIC50) on Mu-type opioid receptor is 5.19; in series [1] it was 6.96; in series [2], 5.17. Moreover, the remaining at 1 h in series [3] was 3%; in [4] it was 4%; in series [5] it was 9%; in [6] it was 10%.

With `CO[C@@]1(c2ccccc2)CCCC[C@H]1CN(C)C`, the pIC50 on Mu-type opioid receptor was less than 5.00; in series [1], 5.41; in series [2], 5.81. For the same compound, the Time in the series on Rattus norvegicus [7] is given as 13 min. Further, the 50% effective dose (ED50) in the series with Rattus norvegicus [8] came out at 3.3 mg/kg.

Consider `CCCCO[C@]1(c2cccc(O)c2)CCCC[C@@H]1CN(C)C`, for which the negative logarithm of the IC50 (pIC50) was 7.01 on Mu-type opioid receptor, 5.56 in [1] and less than 5.00 in [2].

Consider `CO[C@]1(c2cccc(O)c2)CCCC[C@@H]1CN(C)C`, for which the pIC50 at Mu-type opioid receptor was 7.25; in series [1], 5.00; in [2], 6.28. Also, the remaining at 1 h in [3] came out at 88%; in series [4], 74%; in series [5], 104%; in series [6], 98%.

`CCCO[C@]1(c2cccc(O)c2)CCCC[C@@H]1CN(C)C`: the results for the pIC50 (at Mu-type opioid receptor; in [1]; in [2]) were 6.72, 5.55 and 5.20, respectively.

Take `CCO[C@]1(c2cccc(O)c2)CCCC[C@@H]1CN(C)C`: the pIC50 was 6.89 on Mu-type opioid receptor, 5.85 in series [1] and 5.42 in series [2].

For the compound `CCO[C@]1(c2cccc(OC)c2)CCCC[C@@H]1CN(C)C`, the pIC50 at Mu-type opioid receptor was less than 5.00; in series [1], 6.74; in series [2] it was 6.00.

For `COc1cccc([C@@]2(OCC3CC3)CCCC[C@@H]2CN(C)C)c1`, the negative-log IC50 (pIC50) is 5.12 at Mu-type opioid receptor, 7.60 in [1] and 5.42 in series [2]. The remaining at 1 h in series [3] came to 3%; in series [4] it was 6%; in series [5] it was 29%; in series [6], 35%.

For `CNC[C@@H]1CCCC[C@@]1(OC)c1cccc(O)c1`, the pIC50 was 7.08 on Mu-type opioid receptor, 5.98 in [1] and 5.05 in [2].

Regarding `CNCC1CCCCC1(OC)c1cccc(OC)c1` (racemic), the pIC50 on Mu-type opioid receptor is less than 5.00; in series [2], 5.41. The remaining at 1 h amounted to 31% in series [3], 26% in [4], 77% in [5] and 76% in series [6]. The compound also came in with a median effective dose (ED50) in the series on Rattus norvegicus [8] of 2.9 mg/kg.

As a reminder, the bioavailability is the share of a dose that reaches the circulation, judged against a reference dose that is usually intravenous. High values mean good availability, low ones poor availability. For `COc1cccc([C@@]2(OC)CCCC[C@@H]2CN(C)C)c1` (racemic), the negative-log IC50 (pIC50) is 5.10 at Mu-type opioid receptor and 6.79 in series [2]. Moreover, the remaining at 1 h was determined as 17% in [3], 12% in series [4], 82% in series [5] and 85% in series [6]. Moreover, in the series with Rattus norvegicus [7], the Time was 20 min. Further, in the series with Rattus norvegicus [8], the ED50 is 0.7 mg/kg. This compound came in with a bioavailability in series [10] of 11%.

`CN(C)C[C@H]1CCCC[C@]1(O)c1cccc(O)c1` (racemic) [O-DESMETHYL TRAMADOL] gave a negative-log IC50 (pIC50) in [2] of less than 5.00. Besides, the Time in the series on Rattus norvegicus [7] was 2 min.

Compound `COc1cccc(C2(O)CCCCC2CN(C)C)c1` (racemic) [TRAMADOL] showed a negative logarithm of the IC50 (pIC50) in series [2] of 5.41. Besides, the remaining at 1 h in series [3] turned out to be 58%; in [4] it was 56%; in series [5], 96%; in series [6] it was 95%. Also, the Time with Rattus norvegicus [7] was determined as 69 min. This compound came in with a median effective dose (ED50) in the series with Rattus norvegicus [8] of 11.3 mg/kg. In series [10], this compound returned a bioavailability of 36%.

Consider `CO[C@]1(c2ccccc2)CCCC[C@@H]1CN(C)C` (stereo in doubt; 14), for which the negative-log IC50 (pIC50) on Mu-type opioid receptor is 5.32; in series [1] it was 5.60; in series [2], 5.42. Further, the remaining at 1 h came to 56% in series [3], 61% in series [4], 96% in [5] and 101% in [6].

As to `CNC[C@H]1CCCC[C@]1(OC)c1cccc(O)c1` (stereo in doubt; 23), the results for the pIC50 (on Mu-type opioid receptor; in series [1]; in series [2]) were 6.91, 5.16 and 5.65, respectively. Also, the remaining at 1 h in series [3] worked out at 86%; in [4], 82%; in series [5], 103%; in [6], 108%.

For `CNC[C@H]1CCCC[C@]1(OC)c1cccc(O)c1` (stereo in doubt; 26), the negative-log IC50 (pIC50) is 7.32 on Mu-type opioid receptor, 5.28 in [1] and less than 5.00 in series [2].

`CO[C@]1(c2ccccc2)CCCC[C@@H]1CN(C)C` (stereo in doubt; 28): the negative logarithm of the IC50 (pIC50) on Mu-type opioid receptor was 5.59; in [1] it was 5.53; in series [2] it was 5.82. For the same compound, the Activity entry in the series with Rattus norvegicus [9] is “Toxic”.
